Reference: US10899788B2, “Cyclic phosphate substituted nucleoside compounds and methods of use thereof for the treatment of viral diseases” (MERCK SHARP & DOHME CORP., priority 2016, dated 2021)

Columns and labels:
[1] = system: HCV replicon cells (1b-Con1); assay: Replicon activity assay (cell-based anti-HCV activity); conditions: Hepatitis C virus, 72 h, three days post-dosing, replicon RNA level by real-time RT-PCR, read-out: EC50 (1b) Range
Procedure: (§1) To measure cell-based anti-HCV activity of the compounds of the present invention, replicon cells (1b-Con1) are seeded at 5000 cells/well in 96-well plates one day prior to treatment with a compound of the invention. Various concentrations of a test compound of the invention in DMSO are then added to the replicon cells, with the final concentration of DMSO at 0.5% and fetal bovine serum at 10% in the assay media. Cells are harvested three days post-dosing, and the replicon RNA level is determined using real-time RT-PCR (Taqman assay) with GAPDH RNA as endogenous control. EC50 values are calculated from experiments with 10 serial twofold dilutions of the inhibitor in triplicate. To measure cytotoxicity in replicon cells of an inhibitor, an MTS assay is performed according to the manufacturer's protocol for CellTiter 96 Aqueous One Solution Cell Proliferation Assay (Promega, Cat #G3580) three days post dosing on cells treated identically as in replicon activity assays. […] Cytotoxicity in other types of cells may be measured using the same MTS protocol.
(§2) Data were obtained using this method for selected compounds of the present invention, and are set forth below in Table 2.

[2] = Cytotoxicity assay in replicon cells (MTS); assay type: cell-based; conditions: HCV replicon cells (1b-Con1), three days post dosing, head prints EDU, method MTS, read-out: CC50 (EDU) Range
Procedure: as §1, §2

Compound | EC50 [1] | CC50 at 3 days [2]
C#C[C@]1(C)[C@@H]2O[P@](=O)(OCCCC(=O)OC(C)C)OC[C@H]2O[C@H]1n1ccc(=O)[nH]c1=O [Compound 11B] | 0.25 to 1 µM | > 50 µM
C#C[C@]1(C)[C@@H]2O[P@](=O)(OCCCCC(=O)OC3CCCC3)OC[C@H]2O[C@H]1n1ccc(=O)[nH]c1=O [Compound 16B] | 1 to 10 µM | > 50 µM
CCOC(=O)CCCCOP1(=O)OC[C@H]2O[C@@H](n3ccc(=O)[nH]c3=O)[C@](C)(N)[C@@H]2O1 (stereo partly drawn) [21A or 21B] | > 10 µM | > 50 µM
COC(=O)CCCCO[P@]1(=O)OC[C@H]2O[C@@H](n3ccc(=O)[nH]c3=O)[C@](C)(Cl)[C@@H]2O1 [Compound 23B] | 1 to 10 µM | > 50 µM
C#C[C@@]1(O)[C@@H]2O[P@](=O)(OCCCCC(=O)OC3CCCC3)OC[C@H]2O[C@H]1n1ccc(=O)[nH]c1=O [Compound 24B] | ≤ 0.25 µM | > 50 µM
C[C@@]1(Cl)[C@@H]2O[P@@](=O)(OCCCC(=O)OC3CCCC3)OC[C@H]2O[C@H]1n1ccc(N)nc1=O [Compound 6A] | > 10 µM | > 50 µM
C[C@@]1(Cl)[C@@H]2O[P@](=O)(OCCCCC(=O)OC3CCCC3)OC[C@H]2O[C@H]1n1ccc(=O)[nH]c1=O [Compound 19B] | 0.25 to 1 µM | > 50 µM
CCCCOC(=O)CCCO[P@]1(=O)OC[C@H]2O[C@@H](n3ccc(=O)[nH]c3=O)[C@](C)(N)[C@@H]2O1 [Compound 4B] | 1 to 10 µM | > 50 µM
C#C[C@]1(C)[C@@H]2O[P@@](=O)(OCCCCC(=O)OC(C)C)OC[C@H]2O[C@H]1n1ccc(=O)[nH]c1=O [Compound 15A] | > 10 µM | > 50 µM
CC(C)OC(=O)CCCCO[P@@]1(=O)OC[C@H]2O[C@@H](n3ccc(=O)[nH]c3=O)[C@](C)(Cl)[C@@H]2O1 [Compound 18A] | 1 to 10 µM | > 50 µM
C#C[C@@]1(O)[C@@H]2O[P@@](=O)(OCCCCC(=O)OC3CCCC3)OC[C@H]2O[C@H]1n1ccc(=O)[nH]c1=O [Compound 24A] | 1 to 10 µM | > 50 µM
C#C[C@]1(C)[C@@H]2O[P@](=O)(OCCCCC(=O)OC)OC[C@H]2O[C@H]1n1ccc(=O)[nH]c1=O [Compound 22B] | > 10 µM | > 50 µM
C[C@@]1(N)[C@@H]2O[P@](=O)(OCCCCC(=O)OC3CCCC3)OC[C@H]2O[C@H]1n1ccc(=O)[nH]c1=O [Compound 17B] | 1 to 10 µM | > 50 µM
C[C@@]1(N)[C@@H]2O[P@@](=O)(OCCCC(=O)OC3CCCC3)OC[C@H]2O[C@H]1n1ccc(=O)[nH]c1=O [Compound 5A] | > 10 µM | > 50 µM
CC(C)OC(=O)CCCO[P@]1(=O)OC[C@H]2O[C@@H](n3ccc(=O)[nH]c3=O)[C@](C)(N)[C@@H]2O1 [Compound 12B] | > 10 µM | > 50 µM
CC(C)OC(=O)CCCO[P@@]1(=O)OC[C@H]2O[C@@H](n3ccc(=O)[nH]c3=O)[C@](C)(N)[C@@H]2O1 [Compound 12A] | > 10 µM | > 50 µM
CC(C)OC(=O)CCCO[P@]1(=O)OC[C@H]2O[C@@H](n3ccc(=O)[nH]c3=O)[C@](C)(C#N)[C@@H]2O1 [Compound 1B] | 0.25 to 1 µM | > 50 µM
C#C[C@]1(C)[C@@H]2O[P@@](=O)(OCCCCC(=O)OC)OC[C@H]2O[C@H]1n1ccc(=O)[nH]c1=O [Compound 22A] | > 10 µM | > 50 µM
C#C[C@]1(C)[C@@H]2O[P@@](=O)(OCCCCC(=O)OC3CCCC3)OC[C@H]2O[C@H]1n1ccc(=O)[nH]c1=O [Compound 16A] | > 10 µM | > 50 µM
C[C@@]1(Cl)[C@@H]2O[P@@](=O)(OCCCCC(=O)OC3CCCC3)OC[C@H]2O[C@H]1n1ccc(=O)[nH]c1=O [Compound 19A] | 1 to 10 µM | > 50 µM
CCOc1nc(N)nc2c1ncn2[C@@H]1O[C@@H]2CO[P@](=O)(OCCCC(=O)OC(C)C)O[C@H]2[C@@]1(C)N [Compound 3A] | > 10 µM | > 50 µM
CCCCOC(=O)CCCO[P@@]1(=O)OC[C@H]2O[C@@H](n3ccc(=O)[nH]c3=O)[C@](C)(N)[C@@H]2O1 [Compound 4A] | > 10 µM | > 50 µM
C#C[C@]1(C)[C@@H]2O[P@](=O)(OCCC(=O)OC(C)C)OC[C@H]2O[C@H]1n1ccc(=O)[nH]c1=O [Compound 26B] | > 10 µM | > 50 µM
CC(C)OC(=O)CCCO[P@]1(=O)OC[C@H]2O[C@@H](n3ccc(N)nc3=O)[C@](C)(N)[C@@H]2O1 [Compound 10B] | > 10 µM | > 50 µM
C[C@@]1(N)[C@@H]2O[P@](=O)(OCCCC(=O)OC3CCCC3)OC[C@H]2O[C@H]1n1ccc(=O)[nH]c1=O [Compound 5B] | > 10 µM | > 50 µM
CCOc1nc(N)nc2c1ncn2[C@@H]1O[C@@H]2CO[P@@](=O)(OCCCC(=O)OC(C)C)O[C@H]2[C@@]1(C)N [Compound 3B] | 1 to 10 µM | > 50 µM
CC(C)OC(=O)CCCOP1(=O)OC[C@H]2O[C@@H](n3ccc(=O)[nH]c3=O)[C@](C)(C#N)[C@@H]2O1 (stereo partly drawn) [Compound 1A] | 1 to 10 µM | > 50 µM
CC(C)OC(=O)CCCCO[P@@]1(=O)OC[C@H]2O[C@@H](n3ccc(=O)[nH]c3=O)[C@](C)(N)[C@@H]2O1 [Compound 14A] | > 10 µM | > 50 µM
COC(=O)CCCCO[P@@]1(=O)OC[C@H]2O[C@@H](n3ccc(=O)[nH]c3=O)[C@](C)(Cl)[C@@H]2O1 [Compound 23A] | 0.25 to 1 µM | > 50 µM
CC(C)OC(=O)CCCO[P@@]1(=O)OC[C@H]2O[C@@H](n3ccc(N)nc3=O)[C@](C)(N)[C@@H]2O1 [Compound 10A] | > 10 µM | > 50 µM
